Measurements from patent US10085990B2, “Tricyclic compounds as modulators of TNF-α synthesis and as PDE4 inhibitors” (vTv Therapeutics LLC, priority 2008, dated 2018).
Counter-ions that a name gives are not always drawn.

What follows are compounds tested on TNF synthesis in human PBMC (assay: Human PBMC TNF Synthesis Assay). Conditions: LPS-stimulated human PBMC, overnight incubation, TNF ELISA; read-out: TNF inhib.
Format: cell-based
Description: Human PBMC TNF Synthesis Assay
Human PBMC were obtained by from a healthy human donor leuko pak. Typically, all donors were pre-screened for STD, HIV and have been given a physical by a physician. One to two ampoules were thawed at 37° C. and then resuspended in 45 to 85 mL of RPMI+10% FBS to a final concentration of 2.5×10^6 cells/mL. Resuspended cells were filtered to remove any large clumps.
Prepare compounds for addition to cells: All compounds were DMSO stocks at 20 mM. Working stock for cell testing were prepared as 4× concentrated material in RPMI+10% FBS. Compounds were added to a polypropylene block and then diluted with the appropriate amount of RPMI+10% FBS. Typically 2.6 μL of 20 mM stock was diluted to 650 μL final volume to yield an 80 μM starting concentration in the stocks. RPMI was added to DMSO stock by pipetting into the tube or block. The compounds were then serial diluted with RPMI+10% FBS. The final DMSO concentrations were not greater than 0.5% in the assay.
Compounds were added to the cells as 4× working stock. 50 μL of compound was prepared above is added to the cells and re-equilibrated in a humidified 5% CO2 incubator at 37° C. for 30 minutes.
A stock of LPS was prepared using RPMI+10% FBS. To prepare the stock, 2.8 μL of LPS (5 mg/mL; Sigma Cat #L3024) was added to 35 mL of media. 50 μL of the LPS in media was added to the cells. Control cultures without LPS received only RPMI+10% FBS. After an overnight incubation at 37° C., the cell culture supernatant was harvested and stored in a polypropylene 96 well plate.
Samples were tested for TNF as per the manufacturer's instructions (TNF ELISA; R&D Systems, Cat #DY210). The samples were serially diluted with PBS+1% BSA to the appropriate dilution condition for the cell prep, typically a 1:4 or 1:6 dilution.

Structure (SMILES) | IC50
COc1cccc2c1ncc1c(=O)n(-c3cccc(Cl)c3)c(=O)n(C3CCN(C(=O)c4ccccc4)CC3)c12 [Example 91, 1-(1-Benzoyl-piperidin-4-yl)-3-(3-chloro-phenyl)-7-methoxy-1H-pyrimido[5,4-c]quinoline-2,4-dione] | 1 nM
COc1cccc2c1ncc1c(=O)n(-c3cccc(Cl)c3)c(=O)n(C3CCN(S(=O)(=O)C(C)C)CC3)c12 [Example 93, 3-(3-Chloro-phenyl)-7-methoxy-1-[1-(propane-2-sulfonyl)-piperidin-4-yl]-1H-pyrimido[5,4-c]quinoline-2,4-dione] | 0.4 nM
COc1cccc2c1ncc1c(=O)n(-c3cccc(Cl)c3)c(=O)n(C3CCN(S(=O)(=O)N(C)C)CC3)c12 [Example 94, 4-[3-(3-Chloro-phenyl)-7-methoxy-2,4-dioxo-3,4-dihydro-2H-pyrimido[5,4-c]quinolin-1-yl]-piperidine-1-sulfonic acid dimethylamide] | 0.4 nM
COc1cccc2c1ncc1c(=O)n(-c3cccc(Cl)c3)c(=O)n(C3CCN(S(=O)(=O)c4ccccc4)CC3)c12 [Example 95, 1-(1-Benzenesulfonyl-piperidin-4-yl)-3-(3-chloro-phenyl)-7-methoxy-1H-pyrimido[5,4-c]quinoline-2,4-dione] | 1 nM
CCNC(=O)N1CCC(n2c(=O)n(-c3cccc(Cl)c3)c(=O)c3cnc4c(OC)cccc4c32)CC1 [Example 97, 4-[3-(3-Chloro-phenyl)-7-methoxy-2,4-dioxo-3,4-dihydro-2H-pyrimido[5,4-c]quinolin-1-yl]-piperidine-1-carboxylic acid ethylamide] | 0.6 nM
COc1cccc2c1ncc1c(=O)n(-c3cccc(Cl)c3)c(=O)n(C3CCN(C(=O)NC(C)C)CC3)c12 [Example 98, 4-[3-(3-Chloro-phenyl)-7-methoxy-2,4-dioxo-3,4-dihydro-2H-pyrimido[5,4-c]quinolin-1-yl]-piperidine-1-carboxylic acid isopropylamide] | 0.3 nM
COc1cccc2c1ncc1c(=O)n(-c3ccccc3Cl)c(=O)n(C3CCC(C)CC3)c12 (stereo not shown) [Example 99, 3-(2-Chloro-phenyl)-7-methoxy-1-(4-methyl-cyclohexyl)-1H-pyrimido[5,4-c]quinoline-2,4-dione] | 20 nM
COc1cccc2c1ncc1c(=O)n(-c3cccc(Cl)c3)c(=O)n([C@H]3CC[C@H](C(=O)O)CC3)c12 [Example 103, Trans-4-[3-(3-Chloro-phenyl)-7-methoxy-2,4-dioxo-3,4-dihydro-2H-pyrimido[5,4-c]quinolin-1-yl]-cyclohexanecarboxylic acid.hydrochloride] | 1 nM
COc1cccc2c1ncc1c(=O)n(-c3cccc(Cl)c3)c(=O)n(C3CCCCC3)c12 [Example 106, 3-(3-Chloro-phenyl)-1-cyclohexyl-7-methoxy-1H-pyrimido[5,4-c]quinoline-2,4-dione] | 4 nM
COc1cccc2c1ncc1c(=O)n(-c3ccc4c(c3)OCO4)c(=O)n(C3CCN(C(=O)OC(C)(C)C)CC3)c12 [Example 107, 4-(3-Benzo[1,3]dioxol-5-yl-7-methoxy-2,4-dioxo-3,4-dihydro-2H-pyrimido[5,4-c]quinolin-1-yl)-piperidine-1-carboxylic acid tert-butyl ester] | 1 nM
COc1cccc2c1ncc1c(=O)n(-c3ccc4c(c3)OCO4)c(=O)n(C3CCNCC3)c12 [Example 108, 3-Benzo[1,3]dioxol-5-yl-7-methoxy-1-piperidin-4-yl-1H-pyrimido[5,4-c]quinoline-2,4-dione.dihydrochloride] | 450 nM
COc1cccc2c1ncc1c(=O)n(-c3cccc(SC)c3)c(=O)n(C3CCCC3)c12 [Example 111, 1-Cyclopentyl-7-methoxy-3-(3-methylsulfanyl-phenyl)-1H-pyrimido[5,4-c]quinoline-2,4-dione] | 74 nM
COc1cccc2c1ncc1c(=O)n(-c3cccc(S(C)(=O)=O)c3)c(=O)n(C3CCCC3)c12 [Example 112, 1-Cyclopentyl-3-(3-methanesulfonyl-phenyl)-7-methoxy-1H-pyrimido[5,4-c]quinoline-2,4-dione] | 280 nM
